PMC5419029 (Cancer research, 2017)

Columns and labels:
OCTN1 [1] = biological target: T1, OCTN1 (Homo sapiens, UniProt Q9H015); assay: uptake; assay type: cell-based
T1 sequence (Q9H015 1-551): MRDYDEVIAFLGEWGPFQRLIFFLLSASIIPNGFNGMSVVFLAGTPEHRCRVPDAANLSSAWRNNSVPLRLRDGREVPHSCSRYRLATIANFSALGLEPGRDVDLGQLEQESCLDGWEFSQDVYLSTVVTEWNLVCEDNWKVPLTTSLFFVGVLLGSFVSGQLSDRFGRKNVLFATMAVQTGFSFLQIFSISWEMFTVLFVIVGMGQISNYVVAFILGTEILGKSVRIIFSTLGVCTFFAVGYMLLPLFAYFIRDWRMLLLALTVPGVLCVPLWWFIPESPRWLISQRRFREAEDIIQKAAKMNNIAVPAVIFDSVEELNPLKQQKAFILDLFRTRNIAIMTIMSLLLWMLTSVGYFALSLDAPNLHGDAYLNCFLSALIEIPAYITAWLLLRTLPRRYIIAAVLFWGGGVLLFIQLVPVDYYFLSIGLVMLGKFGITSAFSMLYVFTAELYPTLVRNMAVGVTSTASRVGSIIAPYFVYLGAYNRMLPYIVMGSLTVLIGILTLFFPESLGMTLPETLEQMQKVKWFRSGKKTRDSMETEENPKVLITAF

OCTN1 [2] = biological target: T1, OCTN1; assay: uptake in OCTN1-transfected HEK293 cells; assay type: cell-based
OCTN1 [3] = biological target: T1, OCTN1

Compound	uptake (1 μM, 5 min) in OCTN1-transfected HEK293 cells (OCTN1 [1])	other results
Nc1nc(F)nc2c1ncn2[C@@H]1O[C@H](CO)[C@@H](O)[C@@H]1O [fludarabine]	adenosine analogs (eg, clofarabine and fludarabine), and guanosine analogs (eg, ribavirin)	–
Nc1nc(Cl)nc2c1ncn2[C@@H]1O[C@H](CO)[C@@H](O)[C@@H]1F [clofarabine]	adenosine analogs (eg, clofarabine and fludarabine), and guanosine analogs (eg, ribavirin)	–
NC(=O)c1ncn([C@@H]2O[C@H](CO)[C@@H](O)[C@H]2O)n1 [ribavirin]	adenosine analogs (eg, clofarabine and fludarabine), and guanosine analogs (eg, ribavirin)	–
C[N+](C)(C)[C@@H](Cc1c[nH]c(=S)[nH]1)C(=O)[O-] [ergothioneine]	–	uptake in OCTN1-transfected HEK293 cells (transport efficiency) (OCTN1 [2]): 62 ± 8 µL/min/mg
CC[N+](CC)(CC)CC [tetraethylammonium]	–	carbon 14-labeled TEA uptake in OCTN1-transfected HEK293 cells (transport effici) (OCTN1 [3]): 1.1 ± 0.12 µL/min/mg
